# Molecular target: T1, CYP3A1 (Rattus norvegicus, UniProt P04800)
# T1 construct: recombinant rat CYP3A1 in Supersomes (microsomes of baculovirus-transfected insect cells); with NADPH:CYP oxidoreductase (POR) and/or cytochrome b5
# T1 sequence (P04800 1-504): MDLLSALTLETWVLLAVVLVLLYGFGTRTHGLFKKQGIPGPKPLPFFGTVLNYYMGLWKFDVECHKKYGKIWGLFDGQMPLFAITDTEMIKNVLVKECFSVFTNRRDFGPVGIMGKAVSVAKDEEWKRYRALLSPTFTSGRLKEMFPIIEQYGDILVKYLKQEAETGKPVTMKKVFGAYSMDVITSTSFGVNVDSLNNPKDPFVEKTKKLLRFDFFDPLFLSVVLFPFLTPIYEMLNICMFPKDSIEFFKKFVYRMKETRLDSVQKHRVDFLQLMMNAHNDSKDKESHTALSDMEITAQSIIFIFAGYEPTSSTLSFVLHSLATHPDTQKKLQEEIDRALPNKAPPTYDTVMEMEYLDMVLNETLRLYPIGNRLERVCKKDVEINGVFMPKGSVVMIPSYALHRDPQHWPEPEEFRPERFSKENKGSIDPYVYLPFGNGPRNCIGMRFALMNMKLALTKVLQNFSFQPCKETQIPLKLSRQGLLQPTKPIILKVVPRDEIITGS
# Assay: HPLC of AAIa formed from AAII by recombinant CYP in insect-cell microsomes
# Assay type: cell-based
structure (smiles),measurement,value
"O=C(O)c1cc2c(c3c1c([N+](=O)[O-])cc1ccccc13)OCO2 [AAII, 6-nitrophenanthro[3,4-d]-1,3-dioxole-5-carboxylic acid]",HPLC of AAIa formed from AAII by recombinant CYP in insect-cell microsomes,"only rat CYP of the 3A subfamily, CYP3A1, but not CYP3A2, was capable of oxidizing AAII to AAIa"
